In this assay the target is T1, recombinant human pancreatic GLK (Homo sapiens, UniProt P35557).
T1 sequence (P35557 1-465): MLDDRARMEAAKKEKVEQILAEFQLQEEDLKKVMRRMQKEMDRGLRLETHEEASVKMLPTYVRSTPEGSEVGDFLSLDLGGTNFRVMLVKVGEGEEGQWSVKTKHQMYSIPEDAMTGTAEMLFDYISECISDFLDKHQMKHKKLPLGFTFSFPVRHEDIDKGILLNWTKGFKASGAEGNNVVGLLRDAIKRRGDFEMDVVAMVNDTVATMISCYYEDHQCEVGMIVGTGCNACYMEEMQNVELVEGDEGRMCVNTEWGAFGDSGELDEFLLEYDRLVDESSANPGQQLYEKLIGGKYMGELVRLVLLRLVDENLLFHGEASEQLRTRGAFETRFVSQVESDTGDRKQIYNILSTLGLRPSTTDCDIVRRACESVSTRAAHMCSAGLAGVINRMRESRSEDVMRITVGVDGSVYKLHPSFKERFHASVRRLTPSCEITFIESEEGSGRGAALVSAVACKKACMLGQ
The assay is described as follows: biochemical.

Molecules are shown by their SMILES.

In the case of `COC[C@H](C)Oc1cc(OCc2ccccc2)cc(-c2nc3cccnc3[nH]2)c1` [Example 1, 2-{3-(Benzyloxy)-5-[(1S)-2-methoxy-1-methylethoxy]phenyl}-3H-imidazo[4,5-b]pyridine], the EC50 turned out to be 600 nM.

The record behind these values is US20110059941A1, “2-PHENYL SUBSTITUTED IMIDAZOL [4,5B] PYRIDINE/PYRAZINE AND PURINE DERIVATIVES AS GLUCOKINASE MODULATORS” (priority 2005, published 2011).
